Experiments:
[1] = test system: doxorubicin toxicity under elevated vasopressin condition
Description: This condition may be relevant to certain cancer patients who have elevated vasopressin release and are undergoing chemotherapy, such as with doxorubicin.
Two groups of rats were studied and the protocol is described in FIG. 13. Rats were intravenously injected with doxorubicin (3 mg/kg) 3 times once every other day for a total of 9 mg/kg (same as described in Example 4). One group (Dox+DDAVP) was given vehicle and the other group (Dox+DDAVP+Tol) was administered tolvaptan (10 mg/kg) once daily. An osmotic minipump (infusion rate: 0.15 μl/h, ALZET model 2006, ALZA Corporation) was implanted in each rat for continuous subcutaneous infusion of 1 ng/h of DDAVP (a vasopressin V2 agonist [deamino-Cys1, D-Arg8]-vasopressin).

[2] = test system: doxorubicin-induced mortality; test: DDAVP infusion and doxorubicin-induced mortality (Example 2); assay type: in vivo, rat; settings: DDAVP 1 ng/h s.c. infusion 14 days + doxorubicin 6 x 2.5 mg/kg i.p.; vs doxorubicin alone; p<0.001 Log-Rank; FIG. 4
Description: The present inventors investigated whether activation of V2 receptors can accelerate doxorubicin-induced mortality. A continuous subcutaneous infusion of 1 ng/h of DDAVP (deamino-Cyst, D-Arg-vasopressin) per animal was accomplished using an osmotic minipump (infusion rate: 0.5 μL/h, ALZET model 2002, DURECT Corporation, Cupertino, Calif.) for 14 days. On day 0 an osmotic minipump was implanted subcutaneously. The sham control rats had the same surgical procedure but with only saline in the minipump. The rats were then divided into two groups: one with six intraperitoneal injections of doxorubicin (2.5 mg/kg) during a 13 day period, and one with injections of saline. The rats were fed with liquid food throughout the experiment. With the continuous infusion of DDAVP, liquid food feeding increases systemic volume overload and edema, conditions often observed in CHF patients.

doxorubicin-treated rats = settings: antagonist given several weeks after doxorubicin, previous study (ref. 25); cited from earlier work
[3] = test system: total white blood cell (WBC) and lymphocyte (LY) counts; test: Myelosuppression: blood cell counts after doxorubicin (Example 3)
Description: (§1) To determine whether tolvaptan affects the plasma concentration of doxorubicin, plasma samples were obtained after the first (day 1) and sixth (day 13) injection of doxorubicin with vehicle or tolvaptan, and the plasma concentration of doxorubicin was measured.
Anthracyclines including doxorubicin are known to cause myelosuppression due to their ability to intercalate into DNA, and to inhibit new protein synthesis and cell proliferation in the bone marrow (similar mechanisms are involved in the inhibition of cancer cell proliferation). Myelosuppression was used as an index of the ability of doxorubicin to inhibit cell proliferation and anti-cancer effect. […] Blood samples were taken after 1 or 13 days of treatment with doxorubicin.

left ventricle [4] = test: Echocardiography of cardiac function, rat model with intravenous injection of doxorubicin (Example 4); assay type: in vivo
Description: In a clinical setting, doxorubicin is administered intravenously to cancer patients. Furthermore, the major side effect associated with doxorubicin treatment is cardiac dysfunction and development of CHF. Therefore, the effect of tolvaptan on CHF was evaluated in a rat model with intravenous injection of doxorubicin. Cardiac function was determined using high resolution ultrasonograpy. Rats were divided into 3 groups as described in Table 2, and observed for 10 weeks. [table] Control rats were not treated. […] Rats were given either vehicle or tolvaptan (10 mg/kg) daily starting on the first day of doxorubicin injection. On the days with co-administration of doxorubicin and tolvaptan, tolvaptan was given by oral gavage 45 min prior to the intravenous injection of doxorubicin. Cardiac function was evaluated using echocardiography (Vevo 770, Visualsonics Inc, Toronto, Canada). Echo images were taken once a week for 10 consecutive weeks. Rats were anesthetized with Isoflurane and parasternal long and short axis echo images were recorded. Offline analysis of cardiac function (ejection fraction and fraction shortening) and anatomic data of the heart (LV end diastolic diameter and volume) were performed. At the end of the 10-week period, cardiac contractility (LVdp/dtmax/ip) was measured invasively.

left ventricle [5] = test: Invasive hemodynamic measurement of cardiac contractility at end of 10 weeks (Example 4); assay type: in vivo, rat; settings: tolvaptan-treated vs vehicle-treated doxorubicin rats, FIG. 12
Description: Control rats were not treated. For groups 2 and 3 with doxorubicin treatment, rats were given three injections intravenously of doxorubicin (3 mg/kg each) every other day (total dose of 9 mg/kg). […] Rats were given either vehicle or tolvaptan (10 mg/kg) daily starting on the first day of doxorubicin injection. On the days with co-administration of doxorubicin and tolvaptan, tolvaptan was given by oral gavage 45 min prior to the intravenous injection of doxorubicin.
Invasive hemodynamic measurements were performed at the end of the 10 week period.

[6] = Plasma concentration of doxorubicin with vehicle or tolvaptan (Example 3); assay type: in vivo, rat; settings: after first (day 1) and sixth (day 13) doxorubicin injection; tolvaptan vs vehicle; FIG. 6
Description: as §1

[7] = test system: doxorubicin-induced cardiac toxicity and animal death; test: Survival of rats given repeated intraperitoneal injections of doxorubicin (Example 1); assay type: in vivo, rat; settings: tolvaptan 10 mg/kg orally daily
Description: Repeated injection of doxorubicin in animals is known to cause cardiac injury and to increase mortality. A study was designed to investigate the effect of tolvaptan on doxorubicin-induced cardiac toxicity and animal death. Four groups of rats were evaluated; all with 6 injections of doxorubicin (2.5 mg/kg each) during a two week period. To test the ability of tolvaptan to prevent toxicity, tolvaptan (10 mg/kg orally) daily was given to one group of rats (Tol+Dox). Another group of rats was given vehicle only (Veh+Dox). To test the ability of tolvaptan to reverse the toxicity, tolvaptan (10 mg/kg orally) daily was given to one group of rats, starting after the completion of doxorubicin administration (Dox+Tol). Another group of rats was given vehicle only (Dox+Veh). Table 1 summarizes the group designations:
Survival was analyzed using Kaplan-Meier survival analysis with the Log-Rank test.

[8] = thirteen-day treatment with doxorubicin, FIG. 7

**Q.** Which “toxicity of doxorubicin under DDAVP infusion” value ([1]; DDAVP 1 ng/h s.c. infusion + doxorubicin 3 x 3 mg/kg i.v., FIG. 14) does the source give for NC(=O)CC[C@@H]1NC(=O)[C@H](Cc2ccccc2)NC(=O)[C@H](Cc2ccc(O)cc2)NC(=O)CCSSC[C@@H](C(=O)N2CCC[C@H]2C(=O)N[C@H](CCCN=C(N)N)C(=O)NCC(N)=O)NC(=O)[C@H](CC(N)=O)NC1=O [DDAVP, [deamino-Cys1, D-Arg8]-vasopressin] here?
**A.** Its value is “very toxic”.

**Q.** And the “time in which rats died” value ([1]; DDAVP 1 ng/h s.c. infusion + doxorubicin 3 x 3 mg/kg i.v., vehicle)?
**A.** Its value is 2 weeks.

**Q.** What about the “death rate from doxorubicin” value [2] of the same compound?
**A.** Its value is “significantly accelerated”.

**Q.** With Cc1ccccc1C(=O)Nc1ccc(C(=O)N2CCCC(N(C)C)c3ccccc32)cc1 (centres unmarked) [OPC-31260] as the compound, how does the mortality rate (doxorubicin-treated rats) read?
**A.** Its mortality rate is “slight but not significant reduction”.

**Q.** With COc1cccc2c1C(=O)c1c(O)c3c(c(O)c1C2=O)C[C@@](O)(C(=O)CO)C[C@@H]3O[C@H]1C[C@H](N)[C@H](O)[C@H](C)O1 [doxorubicin] as the compound, how does the blood cell counts ([3]; one day treatment with doxorubicin) read?
**A.** Its blood cell counts is “did not affect”.

**Q.** What about the “lymphocyte (LY) count” value [3, 8] of the same compound?
**A.** Its value is “significantly reduced”.

**Q.** And the “total white blood cell (WBC) count” value [3, 8]?
**A.** Its value is “significantly reduced”.

**Q.** And the “fractional shortening of the left ventricle” value (left ventricle [4]; doxorubicin 3 x 3 mg/kg i.v. every other day, weekly echo for 10 weeks, FIG. 8)?
**A.** The value was “progressively decreased”.

**Q.** And the “ejection fraction of the left ventricle” value (left ventricle [4]; doxorubicin 3 x 3 mg/kg i.v. every other day, weekly echo for 10 weeks, FIG. 9)?
**A.** Its value is “progressively decreased”.

**Q.** What about the “left ventricle diastolic volume” value (left ventricle [4]; doxorubicin 3 x 3 mg/kg i.v., weight adjusted, FIG. 10) of the same compound?
**A.** The value was “progressively increased”.

**Q.** What about the “left ventricle diastolic diameter” value (left ventricle [4]; doxorubicin 3 x 3 mg/kg i.v., weight adjusted, FIG. 11) of the same compound?
**A.** Its value is “progressively increased”.

**Q.** With Cc1ccccc1C(=O)Nc1ccc(C(=O)N2CCCC(O)c3cc(Cl)ccc32)c(C)c1 (centres unmarked) [tolvaptan, 7-chloro-5-hydroxy-1-[2-methyl-4-(2-methylbenzoyl-amino)benzoyl]-2,3,4,5-tetrahydro-1H-benzazepine] as the compound, how does the “effect on the myelosuppressive effect of doxorubicin” value ([3]; rat, in vivo) read?
**A.** Its value is “did not affect”.

**Q.** And the “contractility index (LVdp/dtmax normalized to instantaneous LV pressure)” value (left ventricle [5])?
**A.** Its value is “higher”.

**Q.** And the “survival (Kaplan-Meier)” value ([1]; tolvaptan 10 mg/kg once daily, Dox+DDAVP+Tol vs Dox+DDAVP, FIG. 14)?
**A.** Its value is “significantly improved”.

**Q.** What about the “cardiac function (fractional shortening, ejection fraction)” value (left ventricle [4]; tolvaptan 10 mg/kg orally daily from first day of doxorubicin, vs vehicle, FIGS. 8 and 9) of the same compound?
**A.** Its value is “significantly improved”.

**Q.** And the “remodeling process of the left ventricle” value (left ventricle [4]; tolvaptan 10 mg/kg orally daily with doxorubicin, FIGS. 10 and 11)?
**A.** The value was “slowed”.

**Q.** And the “effect on plasma concentration of doxorubicin” value [6]?
**A.** The value was “did not affect”.

**Q.** And the “delay of rat death” value ([7]; initiated after completion of 6 doxorubicin injections, 5 rats per group, FIG. 2)?
**A.** Its value is “only a small delay”.

**Q.** What about the “protective effect on mortality” value ([7]; initiated after completion of 6 doxorubicin injections, FIG. 2) of the same compound?
**A.** The value was “largely lost”.

**Q.** What about the “mortality rate (Kaplan-Meier survival analysis, Log-Rank test)” value ([7]; starting with first doxorubicin injection (6 x 2.5 mg/kg i.p.), 12 weeks, vs vehicle, p<0.001, FIG. 1) of the same compound?
**A.** Its value is “significantly reduced”.
